In patent US20220370416A1, “COMPOUNDS AND METHODS FOR TARGETED DEGRADATION OF KRAS” (Arvinas Operations, Inc., priority 2020, published 2022):

What was measured:
HiBit-KRAS^G12C [1] = target: T1, HiBit-KRAS^G12C (Homo sapiens, UniProt P01116, G12C); assay: HiBit degradation assay in SW1573 HiBit-KRas^G12C cells; format: cell-based; design: expressed in transfected cells; host or cells: SW1573 (clone E6), modified pcDNA3.1 vector, TK promoter; details: 24 hours; for Dmax: SW1573, SW1573 HiBit-KRas^G12C; for DC50: SW1573 HiBit-KRas^G12C
T1 sequence (P01116 1-186 isoform P01116-2 G12C limits assumed): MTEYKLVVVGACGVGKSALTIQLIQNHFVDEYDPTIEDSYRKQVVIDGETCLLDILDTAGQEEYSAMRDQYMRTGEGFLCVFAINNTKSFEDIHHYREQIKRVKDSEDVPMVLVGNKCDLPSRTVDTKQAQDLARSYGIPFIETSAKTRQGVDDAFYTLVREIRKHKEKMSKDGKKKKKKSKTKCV
Outline: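 HiBit-KRAS G12C degradation was measured after a 24 h compound exposure (titrated 10 μM–20 nM) in engineered SW1573 cells. Lytic HiBit luminescence, expressed relative to DMSO controls, yielded DC50 and Dmax from 4-parameter fits. Concentrations causing ≥50% loss in alamar blue viability were omitted as cytotoxic.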

HiBit-KRAS^G12C [2] = target: T1, HiBit-KRAS^G12C; assay: HiBit degradation assay in MiaPaCa-2 HiBit-KRas^G12C cells; format: cell-based; details: 24 hours; for Dmax: MIA PaCa-2, MiaPaCa-2 HiBit-KRas^G12C cells, maximum degradation; for DC50: MiaPaCa-2 HiBit-KRas^G12C cells
Outline: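 DC50 and Dmax come from 4-parameter fits of DMSO-normalized HiBit luminescence after 24 hours' exposure at 37° C to 10 μM–20 nM compound in 0.1% or 0.5% DMSO. Cells: MiaPaCa-2 carrying one endogenously HiBit-tagged KRAS^G12C allele; concentrations causing ≥50% […] viability loss (alamar blue) excluded.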

[3] = 0.1% DMSO, read-out: KRas^G12C-HiBit (SW1573; 0.1% DMSO) Dmax**
[4] = 0.5% DMSO, read-out: KRas^G12C-HiBiT (SW1573; 0.5% DMSO) Dmax**
[5] = 0.1% DMSO, read-out: KRas^G12C-HIBit (SW1573; 0.1% DMSO) DC50*
[6] = 0.1% DMSO, read-out: KRas^G12C-HiBiT (MiaPaCa; 0.1% DMSO) DMax
[7] = 0.5% DMSO, read-out: KRas^G12C-HiBiT (MiaPaCa; 0.5% DMSO) DMax
[8] = read-out: KRas^G12C-HiBiT (MiaPaCa; 0.1% DMSO) IC50, 0.1% DMSO
[9] = read-out: KRas^G12C-HiBiT (SW1573; 0.5% DMSO) IC50***, 0.5% DMSO
[10] = read-out: KRas^G12C-HiBiT (MiaPaCa; 0.5% DMSO) IC50, 0.5% DMSO

SMILES | Dmax (HiBit-KRAS^G12C [1]; [3]) | Dmax (HiBit-KRAS^G12C [1]; [4]) | DC50 (HiBit-KRAS^G12C [1]; [5]) | Dmax (HiBit-KRAS^G12C [2]; [6]) | Dmax (HiBit-KRAS^G12C [2]; [7]) | DC50 (HiBit-KRAS^G12C [2]; [8]) | DC50 (HiBit-KRAS^G12C [1]; [9]) | DC50 (HiBit-KRAS^G12C [2]; [10])
C=CC(=O)N1CCN(c2nc(O[C@H](C)CN3CCC(OCCOCCOCCOc4cc(-c5scnc5C)ccc4CNC(=O)[C@@H]4C[C@@H](O)CN4C(=O)[C@H](c4cc(C)no4)C(C)C)CC3)nc3c(F)c(-c4cc(O)cc5ccccc45)c(Cl)cc23)CC1 [Compound 69, (2S,4R)-N-{[2-(2-{2-[2-({1-[(2R)-2-{[6-chloro-8-fluoro-7-(3-hydroxynaphthalen-1-yl)-4-[4-(prop-2-enoyl)piperazin-1-yl]quinazolin-2-yl]oxy}propyl]piperidin-4-yl}oxy)ethoxy]ethoxy}ethoxy)-4-(4-methyl-1,3-thiazol-5-yl)phenyl]methyl}-4-hydroxy-1-[(2S)-3-methyl-2-(3-methyl-1,2-oxazol-5-yl)butanoyl]pyrrolidine-2-carboxamide] | 35 to 70% |  | 100 to 1000 nM |  |  | > 1000 nM |  | 
C=CC(=O)N1CCN(c2nc(O[C@H](C)CN3CCC(OCCOc4cc(-c5scnc5C)ccc4CNC(=O)[C@@H]4C[C@@H](O)CN4C(=O)[C@H](c4cc(C)no4)C(C)C)CC3)nc3c(F)c(-c4cc(O)cc5ccccc45)c(Cl)cc23)CC1 [Compound 77, (2S,4R)-N-({2-[2-({1-[(2R)-2-{[6-chloro-8-fluoro-7-(3-hydroxynaphthalen-1-yl)-4-[4-(prop-2-enoyl)piperazin-1-yl]quinazolin-2-yl]oxy}propyl]piperidin-4-yl}oxy)ethoxy]-4-(4-methyl-1,3-thiazol-5-yl)phenyl}methyl)-4-hydroxy-1-[(2S)-3-methyl-2-(3-methyl-1,2-oxazol-5-yl)butanoyl]pyrrolidine-2-carboxamide] | < 35% |  | 100 to 1000 nM | < 35% |  |  |  | 
C=CC(=O)N1CCN(c2nc(OC[C@@H]3C[C@@H](OCCOc4cc(-c5scnc5C)ccc4CNC(=O)[C@@H]4C[C@@H](O)CN4C(=O)[C@H](c4cc(C)no4)C(C)C)CN3C)nc3c2CCN(c2cccc4ccccc24)C3)C[C@@H]1CC#N [Compound 89, (2S,4R)-N-{[2-(2-{[(3R,5S)-5-[({4-[(3S)-3-(cyanomethyl)-4-(prop-2-enoyl)piperazin-1-yl]-7-(naphthalen-1-yl)-5H,6H,7H,8H-pyrido[3,4-d]pyrimidin-2-yl}oxy)methyl]-1-methylpyrrolidin-3-yl]oxy}ethoxy)-4-(4-methyl-1,3-thiazol-5-yl)phenyl]methyl}-4-hydroxy-1-[(2S)-3-methyl-2-(3-methyl-1,2-oxazol-5-yl)butanoyl]pyrrolidine-2-carboxamide] | 35 to 70% |  | 100 to 1000 nM |  |  | > 1000 nM | > 1000 nM | > 1000 nM
C=CC(=O)N1CCN(c2nc(OC[C@@H]3CCN(CCCOCC(=O)N[C@H](C(=O)N4C[C@H](O)C[C@H]4C(=O)N[C@@H](C)c4ccc(-c5scnc5C)cc4)C(C)(C)C)C3)nc3c(F)c(-c4cc(O)cc5ccccc45)c(Cl)cc23)C[C@@H]1CC#N [Compound 95, (2S,4R)-1-[(2S)-2-(2-{3-[(3R)-3-[({6-chloro-4-[(3S)-3-(cyanomethyl)-4-(prop-2-enoyl)piperazin-1-yl]-8-fluoro-7-(3-hydroxynaphthalen-1-yl)quinazolin-2-yl}oxy)methyl]pyrrolidin-1-yl]propoxy}acetamido)-3,3-dimethylbutanoyl]-4-hydroxy-N-[(1S)-1-[4-(4-methyl-1,3-thiazol-5-yl)phenyl]ethyl]pyrrolidine-2-carboxamide] |  | > 70% |  |  | > 70% |  | 100 to 1000 nM | > 1000 nM
C=CC(=O)N1CCN(c2nc(OCCN3CCC(COC4(C(=O)N[C@H](C(=O)N5C[C@H](O)C[C@H]5C(=O)N[C@@H](C)c5ccc(-c6scnc6C)cc5)C(C)(C)C)CC4)CC3)nc3c(F)c(-c4cc(O)cc5ccccc45)c(Cl)cc23)C[C@@H]1CC#N [Compound 96, (2S,4R)-1-[(2S)-2-{[1-({1-[2-({6-chloro-4-[(3S)-3-(cyanomethyl)-4-(prop-2-enoyl)piperazin-1-yl]-8-fluoro-7-(3-hydroxynaphthalen-1-yl)quinazolin-2-yl}oxy)ethyl]piperidin-4-yl}methoxy)cyclopropyl] formamido}-3,3-dimethylbutanoyl]-4-hydroxy-N-[(1S)-1-[4-(4-methyl-1,3-thiazol-5-yl)phenyl]ethyl]pyrrolidine-2-carboxamide] |  | > 70% |  |  | > 70% |  | < 100 nM | 100 to 1000 nM

Second part, the molecule after the results:

Dmax (HiBit-KRAS^G12C [1]; [3]) | Dmax (HiBit-KRAS^G12C [1]; [4]) | DC50 (HiBit-KRAS^G12C [1]; [5]) | Dmax (HiBit-KRAS^G12C [2]; [6]) | Dmax (HiBit-KRAS^G12C [2]; [7]) | DC50 (HiBit-KRAS^G12C [2]; [8]) | DC50 (HiBit-KRAS^G12C [1]; [9]) | DC50 (HiBit-KRAS^G12C [2]; [10]) | SMILES
35 to 70% | > 70% | 100 to 1000 nM | 35 to 70% | 35 to 70% |  |  |  | C=CC(=O)N1CCN(c2nc(O[C@H](C)CN3CCC(COCC(=O)N[C@H](C(=O)N4C[C@H](O)C[C@H]4C(=O)N[C@@H](C)c4ccc(-c5scnc5C)cc4)C(C)(C)C)CC3)nc3c(F)c(-c4cc(O)cc5ccccc45)c(Cl)cc23)CC1 [Compound 65, (2S,4R)-1-[(2S)-2-[2-({1-[(2R)-2-{[6-chloro-8-fluoro-7-(3-hydroxynaphthalen-1-yl)-4-[4-(prop-2-enoyl)piperazin-1-yl]quinazolin-2-yl]oxy}propyl]piperidin-4-yl}methoxy)acetamido]-3,3-dimethylbutanoyl]-4-hydroxy-N-[(1S)-1-[4-(4-methyl-1,3-thiazol-5-yl)phenyl]ethyl]pyrrolidine-2-carboxamide]
35 to 70% | 35 to 70% | 100 to 1000 nM | < 35% | 35 to 70% |  |  |  | C=CC(=O)N1CCN(c2nc(OCCN3CCC(OCCOCC(=O)N[C@H](C(=O)N4C[C@H](O)C[C@H]4C(=O)N[C@@H](C)c4ccc(-c5scnc5C)cc4)C(C)(C)C)CC3)nc3c(F)c(-c4cc(O)cc5ccccc45)c(Cl)cc23)CC1 [Compound 66, (2S,4R)-1-[(2S)-2-[2-(2-{[1-(2-{[6-chloro-8-fluoro-7-(3-hydroxynaphthalen-1-yl)-4-[4-(prop-2-enoyl)piperazin-1-yl]quinazolin-2-yl]oxy}ethyl)piperidin-4-yl]oxy}ethoxy)acetamido]-3,3-dimethylbutanoyl]-4-hydroxy-N-[(1S)-1-[4-(4-methyl-1,3-thiazol-5-yl)phenyl]ethyl]pyrrolidine-2-carboxamide]
35 to 70% | 35 to 70% | 100 to 1000 nM | 35 to 70% | 35 to 70% |  |  |  | C=CC(=O)N1CCN(c2nc(O[C@@H](C)CN3CCC(OCCOCC(=O)N[C@H](C(=O)N4C[C@H](O)C[C@H]4C(=O)N[C@@H](C)c4ccc(-c5scnc5C)cc4)C(C)(C)C)CC3)nc3c(F)c(-c4cc(O)cc5ccccc45)c(Cl)cc23)CC1 [Compound 67, (2S,4R)-1-[(2S)-2-{2-[2-({1-[(2S)-2-{[6-chloro-8-fluoro-7-(3-hydroxynaphthalen-1-yl)-4-[4-(prop-2-enoyl)piperazin-1-yl]quinazolin-2-yl]oxy}propyl]piperidin-4-yl}oxy)ethoxy]acetamido}-3,3-dimethylbutanoyl]-4-hydroxy-N-[(1S)-1-[4-(4-methyl-1,3-thiazol-5-yl)phenyl]ethyl]pyrrolidine-2-carboxamide]
35 to 70% | 35 to 70% | 100 to 1000 nM | < 35% | 35 to 70% |  |  |  | C=CC(=O)N1CCN(c2nc(O[C@H](C)CN3CCC(CCOCC(=O)N[C@H](C(=O)N4C[C@H](O)C[C@H]4C(=O)N[C@@H](C)c4ccc(-c5scnc5C)cc4)C(C)(C)C)CC3)nc3c(F)c(-c4cc(O)cc5ccccc45)c(Cl)cc23)CC1 [Compound 68, (2S,4R)-1-[(2S)-2-[2-(2-{1-[(2R)-2-{[6-chloro-8-fluoro-7-(3-hydroxynaphthalen-1-yl)-4-[4-(prop-2-enoyl)piperazin-1-yl]quinazolin-2-yl]oxy}propyl]piperidin-4-yl}ethoxy)acetamido]-3,3-dimethylbutanoyl]-4-hydroxy-N-[(1S)-1-[4-(4-methyl-1,3-thiazol-5-yl)phenyl]ethyl]pyrrolidine-2-carboxamide]
35 to 70% | < 35% | > 1000 nM | 35 to 70% | 35 to 70% |  |  |  | C=CC(=O)N1CCN(c2nc(O[C@H](C)CN3CCC(OCCOCC(=O)N[C@H](C(=O)N4C[C@@H](O)C[C@H]4C(=O)N[C@@H](C)c4ccc(-c5scnc5C)cc4)C(C)(C)C)CC3)nc3c(F)c(-c4cc(O)cc5ccccc45)c(Cl)cc23)CC1 [Compound 82, (2S,4S)-1-[(2S)-2-{2-[2-({1-[(2R)-2-{[6-chloro-8-fluoro-7-(3-hydroxynaphthalen-1-yl)-4-[4-(prop-2-enoyl)piperazin-1-yl]quinazolin-2-yl]oxy}propyl]piperidin-4-yl}oxy)ethoxy]acetamido}-3,3-dimethylbutanoyl]-4-hydroxy-N-[(1S)-1-[4-(4-methyl-1,3-thiazol-5-yl)phenyl]ethyl]pyrrolidine-2-carboxamide]
